Experiment [1] concerns the target T1, cloned human H3 receptors (Homo sapiens, UniProt Q9Y5N1).
T1 construct: expressed in transfected cells
In words: H3 Receptor Binding (Human). Particulars: cloned human H3 receptors stably expressed in SK-N-MC cells; average of results. The procedure:
H3 Receptor Binding (Human)
Binding of compounds to the cloned human H3 receptors, stably expressed in SK-N-MC cells, was performed as described by Barbier, A. J. et al. (Br. J. Pharmacol. 2004, 143(5), 649-661).

In experiment [2] the target is T2, rat H3 receptor (Rattus norvegicus, UniProt Q9QYN8). The experiment is described as follows: H3 Receptor Binding (Rat), rat brain membranes, N-[3H]-α-methylhistamine. The following applies: rat brain without cerebellum membranes; 0.8 nM N-[3H]-α-methylhistamine; average of results. How it is done:
H3 Receptor Binding (Rat)
A rat brain without cerebellum (Zivic Laboratories Inc., Pittsburgh, Pa.) was homogenized in 50 mM Tris-HCl/5 mM EDTA and centrifuged at 1,000 rpm for 5 min. The supernatant was removed and recentrifuged at 15,000 rpm for 30 min. Pellets were rehomogenized in 50 mM Tris/5 mM EDTA (pH 7.4). Membranes were incubated with 0.8 nM N—[^3H]-α-methylhistamine plus/minus test compounds for 60 min at 25° C. and harvested by rapid filtration over GF/C glass fiber filters (pretreated with 0.3% polyethylenimine) followed by four washes with buffer. Nonspecific binding was defined in the presence of 100 μM histamine. Inhibitory concentration (responsible for 50% inhibition of maximal effect, IC50) values were determined by a single site curve-fitting program (GraphPad, San Diego, Calif.) and converted to Ki values based on a N—[^3H]-α-methylhistamine dissociation constant (Kd) of 0.8 nM.

The next experiment deals with human H3 receptor (Homo sapiens, UniProt Q9Y5N1). In words: Cyclic AMP Accumulation, SK-N-MC cells expressing reporter construct and human H3 receptor. The experiment is classed as cell-based. The following applies: cAMP accumulation, average of results, read-out: Human pA2 (converted). The source says:
(§1) Sublines of SK-N-MC cells were created that expressed a reporter construct and either the human or rat H3 receptor. The pA2 values were obtained as described by Barbier et al. (2004).
On the technique in general: Cyclic AMP is a second messenger, typically raised through Gs and lowered through Gi signalling.

Experiment [3] concerns the target T2, rat H3 receptor. In words: Cyclic AMP Accumulation, SK-N-MC cells expressing reporter construct and rat H3 receptor. Format: cell-based. More on the design: expressed in transfected cells; host or cells: SK-N-MC sublines with reporter construct. Particulars: cAMP accumulation, average of results, read-out: Rat pA2 (converted).
Text: as §1

Counter-ions that a name gives are not always drawn.

T2 sequence (Q9QYN8 whole entry): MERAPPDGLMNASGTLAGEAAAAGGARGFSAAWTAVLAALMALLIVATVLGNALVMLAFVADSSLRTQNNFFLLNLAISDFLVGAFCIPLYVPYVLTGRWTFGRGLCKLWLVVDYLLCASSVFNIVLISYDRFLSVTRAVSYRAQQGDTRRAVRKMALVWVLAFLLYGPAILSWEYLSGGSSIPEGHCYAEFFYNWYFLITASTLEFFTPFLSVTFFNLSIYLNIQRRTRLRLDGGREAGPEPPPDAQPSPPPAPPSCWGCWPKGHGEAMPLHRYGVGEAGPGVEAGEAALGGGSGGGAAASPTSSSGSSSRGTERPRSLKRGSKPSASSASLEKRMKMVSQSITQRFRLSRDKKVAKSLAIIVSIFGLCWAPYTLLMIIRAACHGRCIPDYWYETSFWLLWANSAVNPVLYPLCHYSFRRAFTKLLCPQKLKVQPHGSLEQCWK
T1 sequence (Q9Y5N1 whole entry): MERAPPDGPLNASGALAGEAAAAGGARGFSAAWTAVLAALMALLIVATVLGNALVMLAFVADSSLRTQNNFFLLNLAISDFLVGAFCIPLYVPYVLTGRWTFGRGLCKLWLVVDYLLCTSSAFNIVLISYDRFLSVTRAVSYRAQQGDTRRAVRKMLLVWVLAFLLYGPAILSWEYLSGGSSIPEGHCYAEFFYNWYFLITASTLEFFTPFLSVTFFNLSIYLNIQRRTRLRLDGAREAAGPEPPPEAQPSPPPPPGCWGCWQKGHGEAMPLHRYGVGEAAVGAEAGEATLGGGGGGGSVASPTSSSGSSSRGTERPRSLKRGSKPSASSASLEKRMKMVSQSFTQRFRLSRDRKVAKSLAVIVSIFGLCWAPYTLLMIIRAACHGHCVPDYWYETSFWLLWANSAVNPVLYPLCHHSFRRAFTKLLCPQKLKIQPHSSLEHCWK
Chain of human H3 receptor (Q9Y5N1 whole entry): as above

For the compound `N#Cc1nc(C(=O)N2CCCN(C3CC3)CC2)ccc1OC1CCCC1` [Example 11, 3-Cyclopentyloxy-6-(4-cyclopropyl-[1,4]diazepane-1-carbonyl)-pyridine-2-carbonitrile], the affinity in experiment [1], expressed as Ki, was 6 nM. In other words, the single-digit nanomolar range.
Turning to `CC(C)N1CCN(C(=O)c2ccc(OCC3(C)COC3)nc2)CC1` [Example 5, (4-isopropyl-piperazin-1-yl)-[6-(3-methyl-oxetan-3-ylmethoxy)-pyridin-3-yl]-methanone hydrochloride salt], affinity in experiment [1] was put at a Ki of 5010 nM.
For `O=C(c1ccc(OC2CCOC2)nc1)N1CCCN(C2CC2)CC1` (stereo not drawn) [Example 3, (4-Cyclopropyl-[1,4]diazepan-1-yl)-[6-(tetrahydro-furan-3-yloxy)-pyridin-3-yl]-methanone], the affinity in experiment [1] corresponds to a Ki of 6.8 nM.
As to `O=C(c1ccc(OC2CCCCC2)nc1)N1CCCN(C2CCC2)CC1` [Example 8, (4-Cyclobutyl-[1,4]diazepan-1-yl)-(6-cyclohexyloxy-pyridin-3-yl)-methanone], the values for the Ki (in experiment [1]; on rat H3 receptor [2]) were 0.8 nM and 17 nM, respectively. Moreover, the Kb at human H3 receptor is 1.05 nM; on rat H3 receptor [3], 9.77 nM.
For `CC(C)N1CCCN(C(=O)c2ccc(OC3CCOC3)nc2)CC1` (stereo not drawn) [Example 2, (4-Isopropyl-[1,4]diazepan-1-yl)-[6-(tetrahydro-furan-3-yloxy)-pyridin-3-yl]-methanone hydrochloride salt], in experiment [1], the Ki – broadly, the equilibrium dissociation constant of an inhibitor or competing ligand from its target – was 9 nM.
Consider `O=C(c1ccc(OC2CCCC2)nc1)N1CCCN(C2CCC2)CC1` [Example 7, (4-Cyclobutyl-[1,4]diazepan-1-yl)-(6-cyclopentyloxy-pyridin-3-yl)-methanone], for which the Ki turned out to be 1.1 nM in experiment [1] and 44 nM at rat H3 receptor [2]. The Kb at human H3 receptor was 0.49 nM; at rat H3 receptor [3], 4.79 nM.
In the case of `O=C(c1ccc(OC2CCOC2)nc1)N1CCCN(C2CCC2)CC1` (stereo not drawn) [Example 4, (4-Cyclobutyl-[1,4]diazepan-1-yl)-[6-(tetrahydro-furan-3-yloxy)-pyridin-3-yl]-methanone], the inhibition constant (Ki) in experiment [1] is 1.3 nM; at rat H3 receptor [2], 58 nM. Besides, the Kb at human H3 receptor is 0.331 nM; on rat H3 receptor [3], 14.5 nM.
`N#Cc1nc(C(=O)N2CCCN(C3CC3)CC2)ccc1OC1CCCCC1` [Example 12, 3-Cyclohexyloxy-6-(4-cyclopropyl-[1,4]diazepane-1-carbonyl)-pyridine-2-carbonitrile] yielded a Ki in experiment [1] of 2.2 nM.
Turning to `O=C(c1ccc(OC2CCOCC2)nc1)N1CCCN(C2CCC2)CC1` [Example 9, (4-Cyclobutyl-[1,4]diazepan-1-yl)-[6-(tetrahydro-pyran-4-yloxy)-pyridin-3-yl]-methanone], the Ki was 0.9 nM in experiment [1] and 28 nM on rat H3 receptor [2]. Further, the Kb was 0.234 nM at human H3 receptor and 4.37 nM on rat H3 receptor [3].
In turn, `N#Cc1nc(C(=O)N2CCCN(C3CC3)CC2)ccc1OC1CCOC1` (stereo not drawn) [Example 10, 6-(4-Cyclopropyl-[1,4]diazepane-1-carbonyl)-3-(tetrahydro-furan-3-yloxy)-pyridine-2-carbonitrile] had a Ki in experiment [1] of 21 nM.
As for `CC(C)N1CCN(C(=O)c2ccc(OC3CCOC3)nc2)CC1` (stereo not drawn) [Example 1, (4-isopropyl-piperazin-1-yl)-[6-(tetrahydro-furan-3-yloxy)-pyridin-3-yl]-methanone hydrochloride salt], the Ki in experiment [1] was determined as 104 nM.
`CC(C)N1CCCN(C(=O)c2ccc(OCC3(C)COC3)nc2)CC1` [Example 6, (4-Isopropyl-[1,4]diazepan-1-yl)-[6-(3-methyl-oxetan-3-ylmethoxy)-pyridin-3-yl]-methanone hydrochloride salt] had a Ki in experiment [1] of 37 nM.

Source of the values: US8883776B2, “Cycloalkyloxy- and heterocycloalkyloxypyridine compounds as modulators of the histamine H3 receptor” (Janssen Pharmaceutica N.V., priority 2007, dated 2014).
